Experimental data from publication PMC2713098 (Nuclear medicine and biology, 2009).
“Also recorded” adds a separate entry of the source. Like-named read-outs stand apart in the source and are kept apart here.

Assays:
rat A3AR [1] = biological target: T1, rat A3AR (Rattus norvegicus, UniProt P28647)
T1 sequence (P28647 1-320): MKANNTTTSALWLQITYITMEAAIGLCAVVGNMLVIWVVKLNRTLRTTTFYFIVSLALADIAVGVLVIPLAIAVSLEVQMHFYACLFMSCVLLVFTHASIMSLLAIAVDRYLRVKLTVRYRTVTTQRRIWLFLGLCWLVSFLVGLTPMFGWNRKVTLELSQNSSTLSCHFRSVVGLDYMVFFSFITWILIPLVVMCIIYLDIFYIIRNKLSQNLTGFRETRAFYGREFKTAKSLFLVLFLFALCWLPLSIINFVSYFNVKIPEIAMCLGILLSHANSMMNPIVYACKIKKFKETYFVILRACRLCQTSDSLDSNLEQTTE

rat A3AR [2] = biological target: T1, rat A3AR; experiment: Competitive radioligand binding at rat A3AR in CHO cell membranes using [76Br]4; conditions: for potency in binding to the rat A3AR: Figures 1A and 1B, [76Br]4 or [76Br]6 as radioligand; for Ki: read-out: Rat Ki, CHO cell membranes, radioligand [76Br]4 0.5 nM, 25°C 60 min
human A3AR [3] = biological target: T2, human A3AR (Homo sapiens, UniProt P0DMS8); conditions: read-out: Human Ki; CHO cell membranes, radioligand [76Br]MRS5147 6
T2 sequence (P0DMS8 1-318): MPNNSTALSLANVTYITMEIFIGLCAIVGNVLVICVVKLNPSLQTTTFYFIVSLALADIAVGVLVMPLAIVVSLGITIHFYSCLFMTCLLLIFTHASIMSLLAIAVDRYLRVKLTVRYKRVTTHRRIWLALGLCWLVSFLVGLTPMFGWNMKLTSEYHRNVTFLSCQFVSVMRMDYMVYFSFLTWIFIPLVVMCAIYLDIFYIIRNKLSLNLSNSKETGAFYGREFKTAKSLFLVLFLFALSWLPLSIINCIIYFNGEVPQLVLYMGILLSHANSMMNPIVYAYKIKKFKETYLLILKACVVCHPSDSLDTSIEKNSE

human A3AR [4] = biological target: T2, human A3AR; conditions: for potency at human versus rat A3AR: Figures 1A and 1B; for Ki: read-out: Human Ki, CHO cell membranes, radioligand [76Br]4 0.5 nM, 25°C 60 min
[5] = In vivo biodistribution study in rats; design: species or system rat; conditions: for uptake in testes over time: i.v., 15, 60 and 120 min post-injection
A3AR = experiment: In vitro tissue binding; conditions: rat whole brain and testes slices, with and without inhibitors, preliminary
[6] = In vitro metabolism in human hepatocytes; format: in vitro ADME; conditions: 20 μg/mL, 37°C, up to 4 hours; only very small amounts of metabolites by LC/MS
[7] = In vitro metabolism in rat hepatocytes; format: in vitro ADME; conditions: 20 μg/mL, 37°C, up to 4 hours; only very small amounts of metabolites by LC/MS
human A3AR [8] = biological target: T2, human A3AR; conditions: cited from earlier work
[9] = read-out: Rat Ki, CHO cell membranes, radioligand [76Br]MRS5147 6

| Ki (rat A3AR [2]) [nM] | Compound | Ki (rat A3AR [1]; [9]) [nM] | potency in binding to the rat A3AR (rat A3AR [2]) | potency at human versus rat A3AR (human A3AR [4]) | Ki (human A3AR [4]) [nM] | uptake in testes over time ([5]; rat) | also measured |
| --- | --- | --- | --- | --- | --- | --- | --- |
| > 10000 | O=C(Cc1ccccc1)Nc1nc2ccc(Cl)cc2c2nc(-c3ccco3)nn12 [MRS1220, N-[9-chloro-2-(2-furanyl)[1,2, 4]triazolo[1,5-c]quinazolin-5-yl]benzeneacetamide] | > 10000 | ineffective | – | – | – | – |
| – | CNC(=O)[C@]12C[C@@H]1[C@@H](n1cnc3c(NCc4cccc([76Br])c4)nc(Cl)nc31)[C@H](O)[C@@H]2O [[^76Br]4, [^76Br](1′R,2′R,3′S,4′R,5′S)-4-{2-chloro-6-[(3-bromophenylmethyl)amino]purin-9-yl}-1-(methylaminocarbonyl)bicyclo[3.1.0]hexane-2,3-diol] | – | – | – | – | – | organs of primary uptake ([5]; i.v., Sprague-Dawley rats, 15-120 min): liver and kidneys; specific uptake of radioligand in tissue slices (A3AR): fail to show any specific uptake; metabolic stability in human hepatocytes [6]: very stable; metabolic stability in rat hepatocytes [7]: very stable |
| – | O[C@@H]1[C@H](O)[C@@H]2C[C@@H]2[C@H]1n1cnc2c(NCc3cccc([76Br])c3)nc(Cl)nc21 [[^76Br]6, [^76Br](1R,2R,3S,4R,5S)-4-(6-(3-bromobenzylamino)-2-chloro-9H-purin-9-yl)bicyclo[3.1.0]hexane-2,3-diol] | – | – | – | – | continued to increase with time; also recorded: statistically increased relative to the 15 min time point | tissue uptake relative to agonist [76Br]4 ([5]; rat, i.v., %ID/g): an order of magnitude lower |
| 0.9 ± 0.07 | CNC(=O)[C@]12C[C@@H]1[C@@H](n1cnc3c(NCc4cccc(Br)c4)nc(Cl)nc31)[C@H](O)[C@@H]2O [compound 4, (1′R,2′R,3′S,4′R,5′S)-4-{2-chloro-6-[(3-bromophenylmethyl)amino]purin-9-yl}-1-(methylaminocarbonyl)bicyclo[3.1.0]hexane-2,3-diol] | – | – | equally potent | 0.63 ± 0.05 | – | selectivity in comparison to other AR subtypes (human A3AR [8]): high selectivity; Ki (human A3AR [8]; read-out: Ki value at the human A3AR, shown previously, listed as 4 (MRS3581)): 0.38 nM |
| – | O[C@@H]1[C@H](O)[C@@H]2C[C@@H]2[C@H]1n1cnc2c(NCc3cccc(Br)c3)nc(Cl)nc21 [compound 6, (1R,2R,3S,4R,5S)-4-(6-(3-bromobenzylamino)-2-chloro-9H-purin-9-yl)bicyclo[3.1.0]hexane-2,3-diol] | – | – | – | – | increasing uptake in testes | Ki (rat A3AR [1]): 5.2 ± 1.8 nM |

| Compound | Ki (rat A3AR [2]) [nM] | Ki (rat A3AR [1]; [9]) [nM] | potency in binding to the rat A3AR (rat A3AR [2]) | potency at human versus rat A3AR (human A3AR [4]) | Ki (human A3AR [4]) [nM] | uptake in testes over time ([5]; rat) | also measured |
| --- | --- | --- | --- | --- | --- | --- | --- |
| CCCOC(=O)c1c(-c2ccccc2)nc(CC)c(C(=O)SCC)c1CCC [MRS1523, 3-propyl-6-ethyl-5-[(ethylthio)carbonyl]-2-phenyl-4-propyl-3-pyridine carboxylate, reference compound] | 939 ± 98 | 2830 ± 520 | moderately potent | more potent at the human A3AR | 125 ± 13 | – | Ki (human A3AR [3]): 120 ± 17 nM |
